Patent US12281122B1, “PI3K inhibitors” (Cogent Biosciences, Inc., priority 2023, dated 2025)

Legend:
[1] = test system: T47D (PI3Kα-H1047R) cell line; experiment: HTRF phospho-AKT(S473) cell assay in T47D cells; format: cell-based, human; conditions: Homo sapiens; T47D (PI3Kα-H1047R) cells, HTRF phospho-AKT(S473), 2 hours compound incubation
Procedure, shortened: (§1)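 pAKT(S473) in lysates read by HTRF after a 2 h, 37 °C compound exposure (12-point 1:3 series, max 0.5% DMSO). SKBR3 (wild type, top 10 μM) received 70 ng/ml PDGF-BB during the final 15 min; T47D (H1047R, top 5 μM) was unstimulated. IC50 values derived from the dose-response.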

[2] = test system: SKBR3 (PI3Kα-Wild Type) cell line; experiment: HTRF phospho-AKT(S473) cell assay in SKBR3 cells; format: cell-based, human; conditions: Homo sapiens, SK-BR-3; SKBR3 (PI3Kα-Wild Type) cells, HTRF phospho-AKT(S473), 2 hours compound incubation, PDGF-BB stimulated
Procedure, shortened: as §1

| SMILES | IC50 [1] [nM] | IC50 [2] [nM] |
| --- | --- | --- |
| Cc1cc([C@@H](C)Nc2ccc(Cl)nc2C(=O)NS(C)(=O)=O)c2nc(-c3cnc(-c4cnn(C)c4)c(Cl)c3)n(C)c(=O)c2c1 [Compound 292, (R)-6-chloro-3-((1-(2-(5-chloro-6-(1-methyl-1H-pyrazol-4-yl)pyridin-3-yl)-3,6-dimethyl-4-oxo-3,4-dihydroquinazolin-8-yl)ethyl)amino)-N-(methylsulfonyl) picolinamide] | < 250 | 1000 to 5000 |
| Cc1cc([C@@H](C)Nc2ccc(Cl)nc2C(=O)NS(C)(=O)=O)c2nc(-c3cnc(-c4ccn(C)n4)c(Cl)c3)n(C)c(=O)c2c1 [Compound 293, (R)-6-chloro-3-((1-(2-(5-chloro-6-(1-methyl-1H-pyrazol-3-yl)pyridin-3-yl)-3,6-dimethyl-4-oxo-3,4-dihydroquinazolin-8-yl)ethyl)amino)-N-(methylsulfonyl) picolinamide] | 250 to 500 | 1000 to 5000 |
| Cc1cc([C@@H](C)Nc2ccc(Cl)nc2C(=O)NS(=O)(=O)C2COC2)c2nc(N3CCOCC3)n(C)c(=O)c2c1 [Compound 294, (R)-6-chloro-3-((1-(3,6-dimethyl-2-morpholino-4-oxo-3,4-dihydroquinazolin-8-yl)ethyl)amino)-N-(oxetan-3-ylsulfonyl)picolinamide] | < 250 | 1000 to 5000 |
| Cc1cc([C@@H](C)Nc2ccc(Cl)nc2C(=O)NS(C)(=O)=O)c2nc(N3C[C@@H]4[C@H](C3)[C@H]4c3ccn(C)n3)n(C)c(=O)c2c1 [Compound 295, 6-chloro-3-(((R)-1-(3,6-dimethyl-2-((1R,5S,6R)-6-(1-methyl-1H-pyrazol-3-yl)-3-azabicyclo[3.1.0]hexan-3-yl)-4-oxo-3,4-dihydroquinazolin-8-yl)ethyl)amino)-N-(methylsulfonyl) picolinamide] | < 250 | 1000 to 5000 |
| Cc1cc([C@@H](C)Nc2ccc(Cl)nc2C(=O)NS(C)(=O)=O)c2nc(N3C[C@@H]4[C@H](C3)[C@H]4c3ccnn3C)n(C)c(=O)c2c1 [Compound 296, 6-chloro-3-(((R)-1-(3,6-dimethyl-2-((1R,5S,6R)-6-(1-methyl-1H-pyrazol-5-yl)-3-azabicyclo[3.1.0]hexan-3-yl)-4-oxo-3,4-dihydroquinazolin-8-yl)ethyl)amino)-N-(methylsulfonyl) picolinamide] | 250 to 500 | 1000 to 5000 |
| Cc1cc([C@@H](C)Nc2ccc(Cl)nc2C(=O)NS(C)(=O)=O)c2nc(N3[C@@H]4CC[C@H]3C[C@@H](c3cnn(C)c3)C4)n(C)c(=O)c2c1 [Compound 297, 6-chloro-3-(((R)-1-(3,6-dimethyl-2-((1R,3R,5S)-3-(1-methyl-1H-pyrazol-4-yl)-8-azabicyclo[3.2.1]octan-8-yl)-4-oxo-3,4-dihydroquinazolin-8-yl)ethyl)amino)-N-(methylsulfonyl) picolinamide] | 250 to 500 | ≥ 5000 |
| Cc1cc([C@@H](C)Nc2ccc(Cl)nc2C(=O)NS(C)(=O)=O)c2nc(N3[C@@H]4CC[C@H]3C[C@H](c3cnn(C)c3)C4)n(C)c(=O)c2c1 [Compound 298, 6-chloro-3-(((R)-1-(3,6-dimethyl-2-((1R,3S,5S)-3-(1-methyl-1H-pyrazol-4-yl)-8-azabicyclo[3.2.1]octan-8-yl)-4-oxo-3,4-dihydroquinazolin-8-yl)ethyl)amino)-N-(methylsulfonyl) picolinamide] | < 250 | ≥ 5000 |
| Cc1cc([C@@H](C)Nc2ccc(Cl)nc2C(=O)NS(C)(=O)=O)c2nc(N3[C@@H]4CC[C@H]3C[C@@H](c3cnc(C)nc3)C4)n(C)c(=O)c2c1 [Compound 299, 6-chloro-3-(((R)-1-(3,6-dimethyl-2-((1R,3R,5S)-3-(2-methylpyrimidin-5-yl)-8-azabicyclo[3.2.1]octan-8-yl)-4-oxo-3,4-dihydroquinazolin-8-yl)ethyl)amino)-N-(methylsulfonyl) picolinamide] | < 250 | 1000 to 5000 |
| Cc1cc([C@@H](C)Nc2ccc(Cl)nc2C(=O)NS(C)(=O)=O)c2nc(N3[C@@H]4CC[C@H]3C[C@H](c3cnc(C)nc3)C4)n(C)c(=O)c2c1 [Compound 300, 6-chloro-3-(((R)-1-(3,6-dimethyl-2-((1R,3S,5S)-3-(2-methylpyrimidin-5-yl)-8-azabicyclo[3.2.1]octan-8-yl)-4-oxo-3,4-dihydroquinazolin-8-yl)ethyl)amino)-N-(methylsulfonyl) picolinamide] | < 250 | ≥ 5000 |
| Cc1cc([C@@H](C)Nc2ccc(Cl)nc2C(=O)NS(C)(=O)=O)c2nc(N3CCC(C)(c4ccn(C)n4)CC3)n(C)c(=O)c2c1 [Compound 301, (R)-6-chloro-3-((1-(3,6-dimethyl-2-(4-methyl-4-(1-methyl-1H-pyrazol-3-yl)piperidin-1-yl)-4-oxo-3,4-dihydroquinazolin-8-yl)ethyl)amino)-N-(methylsulfonyl) picolinamide] | < 250 | ≥ 5000 |
| Cc1cc([C@@H](C)Nc2ccc(Cl)nc2C(=O)NS(C)(=O)=O)c2nc(N3CCC(C)(c4ccnn4C)CC3)n(C)c(=O)c2c1 [Compound 302, (R)-6-chloro-3-((1-(3,6-dimethyl-2-(4-methyl-4-(1-methyl-1H-pyrazol-5-yl)piperidin-1-yl)-4-oxo-3,4-dihydroquinazolin-8-yl)ethyl)amino)-N-(methylsulfonyl) picolinamide] | < 250 | 1000 to 5000 |
| Cc1cc([C@@H](C)Nc2ccc(Cl)nc2C(=O)NS(C)(=O)=O)c2nc(-c3ccc(-c4noc(C)n4)nc3)n(C)c(=O)c2c1 [Compound 303, (R)-6-chloro-3-((1-(3,6-dimethyl-2-(6-(5-methyl-1,2,4-oxadiazol-3-yl)pyridin-3-yl)-4-oxo-3,4-dihydroquinazolin-8-yl)ethyl)amino)-N-(methylsulfonyl) picolinamide] | 250 to 500 | 1000 to 5000 |
| Cc1cc([C@@H](C)Nc2ccc(Cl)nc2C(=O)NS(C)(=O)=O)c2nc(N3CCC(n4nc(C#N)c5ccccc54)CC3)n(C)c(=O)c2c1 [Compound 304, (R)-6-chloro-3-((1-(2-(4-(3-cyano-1H-indazol-1-yl)piperidin-1-yl)-3,6-dimethyl-4-oxo-3,4-dihydroquinazolin-8-yl)ethyl)amino)-N-(methylsulfonyl) picolinamide] | 250 to 500 | ≥ 5000 |
| Cc1cc([C@@H](C)Nc2ccc(Cl)nc2C(=O)NS(C)(=O)=O)c2nc(-c3ccc(N4CC5CCC(C4)C5O)nc3)n(C)c(=O)c2c1 (stereo partly drawn) [Compound 305, 6-chloro-3-(((1R)-1-(2-(6-(8-hydroxy-3-azabicyclo[3.2.1]octan-3-yl)pyridin-3-yl)-3,6-dimethyl-4-oxo-3,4-dihydroquinazolin-8-yl)ethyl)amino)-N-(methylsulfonyl) picolinamide] | < 250 | ≥ 5000 |
| Cc1cc([C@@H](C)Nc2ccc(Cl)nc2C(=O)NS(C)(=O)=O)c2nc(N3CCC(c4nn(C)cc4N(C)C)CC3)n(C)c(=O)c2c1 [Compound 308, (R)-6-chloro-3-((1-(2-(4-(4-(dimethylamino)-1-methyl-1H-pyrazol-3-yl)piperidin-1-yl)-3,6-dimethyl-4-oxo-3,4-dihydroquinazolin-8-yl)ethyl)amino)-N-(methylsulfonyl) picolinamide] | < 250 | ≥ 5000 |
| Cc1cc([C@@H](C)Nc2ccc(Cl)nc2C(=O)NS(C)(=O)=O)c2nc(N3CCC(n4nccc4N(C)C)CC3)n(C)c(=O)c2c1 [Compound 309, (R)-6-chloro-3-((1-(2-(4-(5-(dimethylamino)-1H-pyrazol-1-yl)piperidin-1-yl)-3,6-dimethyl-4-oxo-3,4-dihydroquinazolin-8-yl)ethyl)amino)-N-(methylsulfonyl) picolinamide] | 250 to 500 | ≥ 5000 |
| Cc1cc([C@@H](C)Nc2ccc(Cl)nc2C(=O)NS(C)(=O)=O)c2nc(N3CCC(n4ccc(N(C)C)n4)CC3)n(C)c(=O)c2c1 [Compound 310, (R)-6-chloro-3-((1-(2-(4-(3-(dimethylamino)-1H-pyrazol-1-yl)piperidin-1-yl)-3,6-dimethyl-4-oxo-3,4-dihydroquinazolin-8-yl)ethyl)amino)-N-(methylsulfonyl) picolinamide] | < 250 | 1000 to 5000 |
| COc1cnn(C2CCN(c3nc4c([C@@H](C)Nc5ccc(Cl)nc5C(=O)NS(C)(=O)=O)cc(C)cc4c(=O)n3C)CC2)c1 [Compound 311, (R)-6-chloro-3-((1-(2-(4-(4-methoxy-1H-pyrazol-1-yl)piperidin-1-yl)-3,6-dimethyl-4-oxo-3,4-dihydroquinazolin-8-yl)ethyl)amino)-N-(methylsulfonyl) picolinamide] | < 250 | 1000 to 5000 |
| Cc1cc([C@@H](C)Nc2ccc(Cl)nc2C(=O)NS(C)(=O)=O)c2nc(N3CCC(c4ccn(-c5cccnc5)n4)CC3)n(C)c(=O)c2c1 [Compound 312, (R)-6-chloro-3-((1-(3,6-dimethyl-4-oxo-2-(4-(1-(pyridin-3-yl)-1H-pyrazol-3-yl)piperidin-1-yl)-3,4-dihydroquinazolin-8-yl)ethyl)amino)-N-(methylsulfonyl) picolinamide] | < 250 | 1000 to 5000 |
| Cc1cc([C@@H](C)Nc2ccc(Cl)nc2C(=O)NS(C)(=O)=O)c2nc(N3C[C@H]4C[C@@H](c5ccn(C)n5)[C@@H]3C4)n(C)c(=O)c2c1 [Compound 315, 6-chloro-3-(((R)-1-(3,6-dimethyl-2-((1S,4S,6R)-6-(1-methyl-1H-pyrazol-3-yl)-2-azabicyclo[2.2.1]heptan-2-yl)-4-oxo-3,4-dihydroquinazolin-8-yl)ethyl)amino)-N-(methylsulfonyl) picolinamide] | < 250 | ≥ 5000 |
